Patent US6355799B1, “Substituted benzene compounds, process for their preparation, and herbicidal and defoliant compositions containing them” (ISK Americas Incorporated, priority 1997, dated 2002)

Legend:
Format in all cases: in vivo
[1] = test system: field corn (Zea mays L., var. Dekalb 535, CORN); assay: Pre-emerge test, crop safety; conditions: pre-emerge; for Pre-emerge Herbicidal Activity CORN: crop damage, phytotoxicity rating 0-100 at 14 days after application; for phytotoxicity rating CORN: 14 days after application, rating scale 0-100
In short: (§1)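 Sandy loam pots; pre-emerge: sown 1 d pre-spray, surface-watered after, then bottom-watered. Post-emerge: sown 8–21 d before, 2–3 leaf stage, + 0.25% v/v NIS, bottom-watered. Acetone, 187 l/ha track spray, 15–1000 g ai/ha. 0–100 injury score, day 14.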

[2] = test system: upland rice (Oryza sp., var. Tebonnet, RICE); assay: Pre-emerge test, crop safety; conditions: pre-emerge; for Pre-emerge Herbicidal Activity RICE: crop damage, phytotoxicity rating 0-100 at 14 days after application; for phytotoxicity rating RICE: 14 days after application, rating scale 0-100
In short: as §1

[3] = test system: barnyardgrass (Echinochloa crus-galli, ECHCG); assay: Pre-emerge test, greenhouse herbicide activity screening; conditions: pre-emerge; for Pre-emerge Herbicidal Activity ECHCG: phytotoxicity rating 0-100 at 14 days after application; for phytotoxicity rating ECHCG: 14 days after application, rating scale 0-100
In short: (§2)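 Compounds in acetone were track-sprayed at 15-1000 g ai/ha (187 l/ha) on sandy loam pots: pre-emerge one day after seeding, post-emerge at 2-3 leaf stage with 0.25% v/v non-ionic surfactant. Phytotoxicity was rated 14 days later on a 0 (no damage) to 100 (complete death) scale.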

[4] = test system: ivyleaf morningglory (Ipomoea hederacea, IPOHE); assay: as above; conditions: pre-emerge; for Pre-emerge Herbicidal Activity IPOHE: phytotoxicity rating 0-100 at 14 days after application; for phytotoxicity rating IPOHE: 14 days after application, rating scale 0-100
In short: as §2

[5] = test system: large crabgrass (Digitaria sanguinalis, DIGSA); assay: as above; conditions: pre-emerge; for Pre-emerge Herbicidal Activity DIGSA: phytotoxicity rating 0-100 at 14 days after application; for phytotoxicity rating DIGSA: 14 days after application, rating scale 0-100
In short: as §2

[6] = test system: johnsongrass (Sorghum halepense, SORHA); assay: as above; conditions: pre-emerge; for Pre-emerge Herbicidal Activity SORHA: phytotoxicity rating 0-100 at 14 days after application; for phytotoxicity rating SORHA: 14 days after application, rating scale 0-100
In short: as §2

[7] = test system: velvetleaf (Abutilon theophrasti, ABUTH); assay: as above; conditions: pre-emerge; for Pre-emerge Herbicidal Activity ABUTH: phytotoxicity rating 0-100 at 14 days after application; for phytotoxicity rating ABUTH: 14 days after application, rating scale 0-100
In short: as §2

[8] = test system: sicklepod (Cassia obtusifolia, CASOB); assay: as above; conditions: pre-emerge; for Pre-emerge Herbicidal Activity CASOB: phytotoxicity rating 0-100 at 14 days after application; for phytotoxicity rating CASOB: 14 days after application, rating scale 0-100
In short: as §2

[9] = test system: green foxtail (Setaria viridis, SETVI); assay: as above; conditions: pre-emerge; for Pre-emerge Herbicidal Activity SETVI: phytotoxicity rating 0-100 at 14 days after application; for phytotoxicity rating SETVI: 14 days after application, rating scale 0-100
In short: as §2

[10] = test system: lambsquarters (Chenopodium album, CHEAL); assay: as above; conditions: pre-emerge; for Pre-emerge Herbicidal Activity CHEAL: phytotoxicity rating 0-100 at 14 days after application; for phytotoxicity rating CHEAL: 14 days after application, rating scale 0-100
In short: as §2

[11] = test system: redroot pigweed (Amaranthus retroflexus, AMARE); assay: as above; conditions: pre-emerge; for Pre-emerge Herbicidal Activity AMARE: phytotoxicity rating 0-100 at 14 days after application; for phytotoxicity rating AMARE: 14 days after application, rating scale 0-100
In short: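 Visual ratings on a 0-100 scale (0 no damage, 100 all plants dead) were taken at 14 days after treatment. Rates of 15-1000 g ai/ha in acetone, 187 l/ha, were sprayed onto soil one day after planting (pre-emerge) or onto 2-3 leaf plants with 0.25% v/v surfactant (post-emerge).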

C#CCOc1c(Cl)cc(Cl)c(-n2nnn(CCCF)c2=O)c1N [Compound 5-15]
Pre-emerge Herbicidal Activity CORN ([1]; rate 63 g ai/ha): 0 | Pre-emerge Herbicidal Activity CORN ([1]; rate 250 g ai/ha): 0 | Pre-emerge Herbicidal Activity RICE ([2]; rate 63 g ai/ha): 0 | Pre-emerge Herbicidal Activity RICE ([2]; rate 250 g ai/ha): 0 | Pre-emerge Herbicidal Activity ECHCG ([3]; rate 63 g ai/ha): 0 | Pre-emerge Herbicidal Activity ECHCG ([3]; rate 250 g ai/ha): 0 | Pre-emerge Herbicidal Activity IPOHE ([4]; rate 63 g ai/ha): 0 | Pre-emerge Herbicidal Activity IPOHE ([4]; rate 250 g ai/ha): 0 | Pre-emerge Herbicidal Activity DIGSA ([5]; rate 63 g ai/ha): 0 | Pre-emerge Herbicidal Activity DIGSA ([5]; rate 250 g ai/ha): 0 | Pre-emerge Herbicidal Activity SORHA ([6]; rate 63 g ai/ha): 0 | Pre-emerge Herbicidal Activity SORHA ([6]; rate 250 g ai/ha): 0 | Pre-emerge Herbicidal Activity ABUTH ([7]; rate 63 g ai/ha): 0 | Pre-emerge Herbicidal Activity ABUTH ([7]; rate 250 g ai/ha): 0 | Pre-emerge Herbicidal Activity CASOB ([8]; rate 63 g ai/ha): 0 | Pre-emerge Herbicidal Activity CASOB ([8]; rate 250 g ai/ha): 0 | Pre-emerge Herbicidal Activity SETVI ([9]; rate 63 g ai/ha): 0 | Pre-emerge Herbicidal Activity SETVI ([9]; rate 250 g ai/ha): 0 | Pre-emerge Herbicidal Activity CHEAL ([10]; rate 63 g ai/ha): 0 | Pre-emerge Herbicidal Activity CHEAL ([10]; rate 250 g ai/ha): 0 | Pre-emerge Herbicidal Activity AMARE ([11]; rate 63 g ai/ha): 0 | Pre-emerge Herbicidal Activity AMARE ([11]; rate 250 g ai/ha): 0

CC(C)Oc1c(Cl)cc(Cl)c(-n2nnn(CCCF)c2=O)c1N [Compound 5-16]
Pre-emerge Herbicidal Activity CORN ([1]; rate 63 g ai/ha): 0 | Pre-emerge Herbicidal Activity CORN ([1]; rate 250 g ai/ha): 0 | Pre-emerge Herbicidal Activity RICE ([2]; rate 63 g ai/ha): 0 | Pre-emerge Herbicidal Activity RICE ([2]; rate 250 g ai/ha): 0 | Pre-emerge Herbicidal Activity ECHCG ([3]; rate 63 g ai/ha): 0 | Pre-emerge Herbicidal Activity ECHCG ([3]; rate 250 g ai/ha): 0 | Pre-emerge Herbicidal Activity IPOHE ([4]; rate 63 g ai/ha): 0 | Pre-emerge Herbicidal Activity IPOHE ([4]; rate 250 g ai/ha): 0 | Pre-emerge Herbicidal Activity DIGSA ([5]; rate 63 g ai/ha): 0 | Pre-emerge Herbicidal Activity DIGSA ([5]; rate 250 g ai/ha): 0 | Pre-emerge Herbicidal Activity SORHA ([6]; rate 63 g ai/ha): 0 | Pre-emerge Herbicidal Activity SORHA ([6]; rate 250 g ai/ha): 0 | Pre-emerge Herbicidal Activity ABUTH ([7]; rate 63 g ai/ha): 0 | Pre-emerge Herbicidal Activity ABUTH ([7]; rate 250 g ai/ha): 0 | Pre-emerge Herbicidal Activity CASOB ([8]; rate 63 g ai/ha): 0 | Pre-emerge Herbicidal Activity CASOB ([8]; rate 250 g ai/ha): 0 | Pre-emerge Herbicidal Activity SETVI ([9]; rate 63 g ai/ha): 0 | Pre-emerge Herbicidal Activity SETVI ([9]; rate 250 g ai/ha): 0 | Pre-emerge Herbicidal Activity CHEAL ([10]; rate 63 g ai/ha): 0 | Pre-emerge Herbicidal Activity CHEAL ([10]; rate 250 g ai/ha): 20 | Pre-emerge Herbicidal Activity AMARE ([11]; rate 63 g ai/ha): 0 | Pre-emerge Herbicidal Activity AMARE ([11]; rate 250 g ai/ha): 0

Cn1c(C(F)(F)F)cc(=O)n(-c2ccc(Cl)cc2C(=O)c2ccccc2)c1=O [14-57]
phytotoxicity rating CORN ([1]; 63 g ai/ha): 0 | phytotoxicity rating CORN ([1]; 250 g ai/ha): 0 | phytotoxicity rating RICE ([2]; 63 g ai/ha): 0 | phytotoxicity rating RICE ([2]; 250 g ai/ha): 0 | phytotoxicity rating ECHCG ([3]; 63 g ai/ha): 0 | phytotoxicity rating ECHCG ([3]; 250 g ai/ha): 0 | phytotoxicity rating IPOHE ([4]; 63 g ai/ha): 0 | phytotoxicity rating IPOHE ([4]; 250 g ai/ha): 0 | phytotoxicity rating DIGSA ([5]; 63 g ai/ha): 0 | phytotoxicity rating DIGSA ([5]; 250 g ai/ha): 20 | phytotoxicity rating SORHA ([6]; 63 g ai/ha): 0 | phytotoxicity rating SORHA ([6]; 250 g ai/ha): 0 | phytotoxicity rating ABUTH ([7]; 63 g ai/ha): 0 | phytotoxicity rating ABUTH ([7]; 250 g ai/ha): 0 | phytotoxicity rating CASOB ([8]; 63 g ai/ha): 0 | phytotoxicity rating CASOB ([8]; 250 g ai/ha): 0 | phytotoxicity rating SETVI ([9]; 63 g ai/ha): 0 | phytotoxicity rating SETVI ([9]; 250 g ai/ha): 0 | phytotoxicity rating CHEAL ([10]; 63 g ai/ha): 0 | phytotoxicity rating CHEAL ([10]; 250 g ai/ha): 0 | phytotoxicity rating AMARE ([11]; 63 g ai/ha): 0 | phytotoxicity rating AMARE ([11]; 250 g ai/ha): 0
